Laboratory results: patent US10221129B2, “Inhibitors of human immunodeficiency virus replication” (ViiV HEALTHCARE UK (NO.5) LIMITED, priority 2015, dated 2019)
Like-named read-outs stand apart in the source and are kept apart here.

Legend:
Assay type in all cases: cell-based
uninfected MT2 cells = assay: Compound cytotoxicity, XTT-based colorimetric assay; settings: day 4, XTT
Outline: (§1)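 Run under the antiviral-assay protocol but without virus. Viability was read on day 4 and CC50 values were derived from the readout.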

[1] = system: recombinant NL4-3 virus (nef section replaced with Renilla luciferase gene) in MT-2 cells; assay: HIV cell culture assay (antiviral activity, luciferase readout)
Outline: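 Serial compound dilutions tested in MT-2 cells infected for 4-5 days with 293T-derived NL4-3 virus carrying Renilla luciferase in place of part of nef. Antiviral activity quantified as luciferase activity, read with a live-cell substrate.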

[2] = Compound cytotoxicity, XTT-based colorimetric assay; settings: human, uninfected MT2 cells, day 4, XTT
Outline: as §1

[3] = Renilla, NL43, MT-2 cells infected for 4-5 days with recombinant NL4-3 Renilla luciferase virus
[4] = MT-2 cells infected for 4-5 days with recombinant NL4-3 Renilla luciferase virus
[5] = MT-2 cells infected for 4-5 days with recombinant NL4-3 Renilla luciferase virus, read-out: EC50

Structure (SMILES)	CC50 (uninfected MT2 cells) [µM]	EC50 [1, 3] [µM]	EC50 [1, 4] [µM]	EC50 [1, 5] [µM]	CC50 at 4 days [2] [µM]
CC1CN(S(=O)(=O)NC(=O)N[C@@H](Cc2cc(F)cc(F)c2)C(=O)N(C)c2ccc3scnc3c2)c2ncccc21 (single isomer, unassigned) [VN-15]	> 100	0.03	–	–	–
CC1Cc2cccnc2N1S(=O)(=O)NC(=O)N[C@@H](Cc1cc(F)cc(F)c1)C(=O)N(C)c1ccc2scnc2c1 (single isomer, unassigned) [VN-7]	> 1	–	0.05	–	–
CN(C(=O)[C@H](Cc1cc(F)cc(F)c1)NC(=O)NS(=O)(=O)n1ccc2cncnc21)c1ccc2scnc2c1 [VN-20]	> 100	–	–	0.94	–
CN(C)C(=O)C1Cc2cccnc2N1S(=O)(=O)NC(=O)N[C@@H](Cc1cc(F)cc(F)c1)C(=O)N(C)c1ccc2scnc2c1 (single isomer, unassigned) [BB-29]	> 100	–	2.43	–	–
COc1ccc(N(C)C(=O)[C@H](Cc2ccccc2)NC(=O)NS(=O)(=O)NCc2n[nH]c3ccccc23)cc1 [JB-66]	> 100	–	–	1.18	–
CN(C(=O)[C@H](Cc1cc(F)cc(F)c1)NC(=O)NS(=O)(=O)N1CCc2cncnc21)c1ccc2scnc2c1 [VN-19]	70.5	–	–	0.68	–
CC1CCc2ccccc2N1S(=O)(=O)NC(=O)N[C@@H](Cc1cc(F)cc(F)c1)C(=O)N(C)c1ccc2scnc2c1 (single isomer, unassigned) [VN-10]	> 33.3	0.1	–	–	–
CC1CCc2ccccc2N1S(=O)(=O)NC(=O)N[C@@H](Cc1cc(F)cc(F)c1)C(=O)N(C)c1ccc2scnc2c1 (single isomer, unassigned) [VN-11]	93.5	–	0.09	–	–
CN(C(=O)[C@H](Cc1cc(F)cc(F)c1)NC(=O)NS(=O)(=O)N1CCCC1c1ccccn1)c1ccc2scnc2c1 (single isomer, unassigned) [VN-2]	> 100	–	0.61	–	–
CN(C(=O)[C@H](Cc1cc(F)cc(F)c1)NC(=O)NS(=O)(=O)N1CCCC1c1ccccc1)c1ccc2scnc2c1 (single isomer, unassigned) [VN-4]	57.5	–	0.19	–	–
CN(C(=O)[C@H](Cc1cc(F)cc(F)c1)NC(=O)NS(=O)(=O)NCC1CC1)c1ccc2scnc2c1 [CA-127]	–	0.06	–	–	> 100
CN(C(=O)[C@H](Cc1cc(F)cc(F)c1)NC(=O)NS(=O)(=O)N1CCc2cccnc21)c1ccc(Cl)cc1 [ZY-25]	–	0.03	–	–	97.1
COc1ccc(N(C)C(=O)[C@H](Cc2ccccc2)NC(=O)NS(=O)(=O)N2CCc3c(Cl)cccc32)cc1 [CA-1]	–	0.25	–	–	21.4
Cc1cc(N(C)C(=O)[C@H](Cc2cc(F)cc(F)c2)NC(=O)NS(=O)(=O)N2CCc3cccnc32)ccc1C#N [BB-15]	–	0.46	–	–	> 100
Cc1ccc(NS(=O)(=O)NC(=O)N[C@@H](Cc2cc(F)cc(F)c2)C(=O)N(C)c2ccc3scnc3c2)cc1 [ZY-10]	–	0.05	–	–	> 100
COc1ccc(N(C)C(=O)[C@H](Cc2ccccc2)NC(=O)NS(=O)(=O)Nc2cccc(C(N)=O)c2)cc1 [JB-61]	–	4.91	–	–	> 100
COc1ccc(N(C)C(=O)[C@H](Cc2ccccc2)NC(=O)NS(=O)(=O)Nc2cc(F)ccc2F)cc1 [JB-48]	–	0.17	–	–	> 100
COc1ccc(N(C)C(=O)[C@H](Cc2ccccc2)NC(=O)NS(=O)(=O)Nc2ccccc2C(N)=O)cc1 [CA-22]	–	2.51	–	–	> 100
CN(C(=O)[C@H](Cc1cc(F)cc(F)c1)NC(=O)NS(=O)(=O)N1CC[C@@H](O)C1)c1ccc2scnc2c1 [VN-27]	–	0.09	–	–	> 100
CN(C(=O)[C@H](Cc1cc(F)cc(F)c1)NC(=O)NS(=O)(=O)N(C)CCO)c1ccc2scnc2c1 [CA-125]	–	0.16	–	–	> 100

Structure (SMILES)	CC50 (uninfected MT2 cells) [µM]	EC50 [1, 3] [µM]	EC50 [1, 4] [µM]	EC50 [1, 5] [µM]	CC50 at 4 days [2] [µM]
COc1ccc(N(C)C(=O)[C@H](Cc2ccccc2)NC(=O)NS(=O)(=O)NC(C)c2csc(C)n2)cc1 (some centres unmarked) [JB-64]	–	0.68	–	–	> 100
CN(C(=O)[C@H](Cc1cc(F)cc(F)c1)NC(=O)NS(=O)(=O)N1CCc2cccnc21)c1ccc(Cl)c(C#N)c1 [BB-23]	–	0.28	–	–	> 100
CN(C(=O)[C@H](Cc1cc(F)cc(F)c1)NC(=O)NS(=O)(=O)N1CCOc2cccnc21)c1ccc2scnc2c1 [AW-1]	–	0.11	–	–	> 100
CN(C(=O)[C@H](Cc1ccccc1)NC(=O)NS(=O)(=O)N(C)c1ccccc1Cl)c1ccc2ncccc2c1 [JB-11]	–	0.04	–	–	> 100
CN(C(=O)[C@H](Cc1cc(F)cc(F)c1)NC(=O)NS(=O)(=O)n1ncc2cc(F)ccc21)c1ccc2scnc2c1 [ZY-20]	–	4.19	–	–	> 100
COc1ccc(N(C)C(=O)[C@H](Cc2ccccc2)NC(=O)NS(=O)(=O)Nc2ccc3[nH]cnc3c2)cc1 [JB-36]	–	2.26	–	–	> 100
COc1ccc(N(C)C(=O)[C@H](Cc2ccccc2)NC(=O)NS(=O)(=O)Nc2cccc3ncccc23)cc1 [CA-8]	–	0.59	–	–	> 100
CN(C)C(=O)[C@H]1CCCN1S(=O)(=O)NC(=O)N[C@@H](Cc1cc(F)cc(F)c1)C(=O)N(C)c1ccc2scnc2c1 [BB-26]	–	0.31	–	–	> 100
COc1ccc(N(C)C(=O)[C@H](Cc2ccccc2)NC(=O)NS(=O)(=O)Nc2cccc(NS(C)(=O)=O)c2)cc1 [CA-46]	–	11.6	–	–	> 100
CN(C(=O)[C@H](Cc1cc(F)cc(F)c1)NC(=O)NS(=O)(=O)N1CCCC1c1ccccc1)c1ccc2scnc2c1 (single isomer, unassigned) [VN-3]	–	–	0.85	–	52.4
COc1ccc(N(C)C(=O)[C@H](Cc2ccccc2)NC(=O)NS(=O)(=O)N(C)c2cccc(Cl)c2)cc1 [JB-37]	–	0.06	–	–	> 100
COc1ccc(N(C)C(=O)[C@H](Cc2ccccc2)NC(=O)NS(=O)(=O)Nc2ccc(NC(C)=O)cc2)cc1 [CA-17]	–	1.94	–	–	> 100
COc1ccc(N(C)C(=O)[C@H](Cc2ccccc2)NC(=O)NS(=O)(=O)NCc2ccccn2)cc1 [JB-39]	–	1.38	–	–	> 100
CN(C(=O)[C@H](Cc1cc(F)cc(F)c1)NC(=O)NS(=O)(=O)Nc1cccc(Cl)c1)c1ccc2scnc2c1 [CA-116]	–	0.06	–	–	73.2
CN(C(=O)[C@H](Cc1cc(F)cc(F)c1)NC(=O)NS(=O)(=O)NCc1cccnc1)c1ccc2scnc2c1 [CA-135]	–	1.53	–	–	> 100
COc1ccc(N(C)C(=O)[C@H](Cc2ccccc2)NC(=O)NS(=O)(=O)N2CCCc3ccccc32)cc1 [JB-2]	–	0.11	–	–	> 33.3
COc1ccc(N(C)C(=O)[C@H](Cc2ccccc2)NC(=O)NS(=O)(=O)NCc2cccc(-n3cccn3)c2)cc1 [JB-47]	–	3.41	–	–	> 100
Cc1ccc(N(C)C(=O)[C@H](Cc2cc(F)cc(F)c2)NC(=O)NS(=O)(=O)N2CCc3cccnc32)cn1 [GW-2]	–	0.07	–	–	> 100
COc1ccc(N(C)C(=O)[C@H](Cc2ccccc2)NC(=O)NS(=O)(=O)Nc2ccc(Br)cc2)cc1 [CA-16]	–	0.09	–	–	> 100
COc1ccc(N(C)C(=O)[C@H](Cc2ccccc2)NC(=O)NS(=O)(=O)NCc2cncn2C)cc1 [JB-55]	–	14.8	–	–	> 100
